Experimental data published in patent US8673951B2, “Isoxazoline-substituted benzamide compound and pesticide” (priority 2005, dated 2014).

How the values were obtained:
[1] = tested on: common cutworm (Spodoptera litura); assay: Insecticidal test against common cutworm (Test Example 2); format: in vivo; settings: in Brassica oleracea, foliar, 144 h, read-out: insecticidal rate (rate of dead insects)
Experimental: A 10% emulsifiable concentrate (depending on the compounds, 10% wettable powder was applied for the test) of the compound of the present invention was diluted with water […] To the chemical solution was dipped leaves of cabbage for about 10 seconds, and after air-drying, they were placed in a laboratory dish, then 5-common cutworm (Spodoptera litura) in the stage of second instar larva per the dish were released therein, and the dish was covered with a lid and contained at a thermostat chamber at 25° C. […] Incidentally, the test was carried out with two districts.

[2] = tested on: cabbage moth (Plutella xylostella); assay: Insecticidal test against cabbage moth (Test Example 1); format: in vivo; settings: foliar, 144 h, read-out: insecticidal rate (rate of dead insects)

SMILES | pest or weed control at 10 ppm [1] [%] | pest or weed control at 10 ppm [2] [%] | pest or weed control at 100 ppm [1] [%] | pest or weed control at 100 ppm [2] [%] | pest or weed control at 500 ppm [2] [%]
COC(=O)N(C(=O)c1ccc(C2=NOC(c3cc(Cl)cc(Cl)c3)(C(F)(F)F)C2)cc1C)C1CCCO1 (stereo not drawn) [3-077, Methyl N-[4-[5-(3,5-dichlorophenyl)-5-trifluoromethyl-4,5-dihydro-isoxazole-3-yl]-2-methylbenzoyl]-N-(2-tetrahydrofuranyl)carbamate] | ≥ 80 | ≥ 80 | – | – | –
COC(=O)N(C(=O)c1ccc(C2=NOC(c3cc(Cl)cc(Cl)c3)(C(F)(F)F)C2)cc1C)c1ccc(Cl)cn1 (stereo not drawn) [5-060, Methyl N-(5-chloro-2-pyridyl)-N-[4-[5-(3,5-dichlorophenyl)-5-trifluoromethyl-4,5-dihydro-isoxazole-3-yl]-2-methylbenzoyl]carbamate] | – | – | ≥ 80 | ≥ 80 | –
CON=CNC(=O)c1ccc(C2=NOC(c3cc(Cl)cc(C(F)(F)F)c3)(C(F)(F)F)C2)cc1C (stereo not drawn) [6-037, 4-[5-(3-Chloro-5-trifluoromethylphenyl)-5-trifluoromethyl-4,5-dihydroisoxazole-3-yl]-N-(methoxyiminomethyl)-2-methyl benzoic acid amide] | ≥ 80 | ≥ 80 | – | – | –
CON=CNC(=O)c1ccc(C2=NOC(c3cc(Cl)cc(Cl)c3)(C(F)(F)F)C2)cc1CN(C)C (stereo not drawn) [6-032, 4-[5-(3,5-Dichlorophenyl)-5-trifluoromethyl-4,5-dihydroisoxazole-3-yl]-2-(dimethylaminomethyl)-N-(methoxyiminomethyl)benzoic acid amide] | – | – | – | – | ≥ 80
COC(=O)NC(=O)c1c(C)cc(C2=NOC(c3cc(Cl)cc(Cl)c3)(C(F)(F)F)C2)cc1I (stereo not drawn) [2-019, Methyl N-[4-[5-(3,5-dichlorophenyl)-5-trifluoromethyl-4,5-dihydroisoxazole-3-yl]-6-iodo-2-methylbenzoyl]carbamate] | – | – | – | – | ≥ 80
COC(=O)N(C(=O)c1ccc(C2=NOC(c3cc(Cl)cc(Cl)c3)(C(F)(F)F)C2)cc1C)c1ncccn1 (stereo not drawn) [5-014, Methyl N-[4-[5-(3,5-dichlorophenyl)-5-trifluoromethyl-4,5-dihydroisoxazole-3-yl]-2-methylbenzoyl]-N-(2-pyrimidinyl)carbamate] | – | – | ≥ 80 | ≥ 80 | –
COC(=O)NC(=O)c1ccc(C2=NOC(c3cc(Cl)c(Cl)c(Cl)c3)(C(F)(F)F)C2)cc1C (stereo not drawn) [2-026, Methyl N-[2-methyl-4-[5-(3,4,5-trichlorophenyl)-5-trifluoromethyl-4,5-dihydroisoxazole-3-yl]benzoyl]carbamate] | ≥ 80 | ≥ 80 | – | – | –
CON=CNC(=O)c1ccc(C2=NOC(c3cc(Cl)cc(Cl)c3)(C(F)(F)F)C2)cc1NC(C)=O (stereo not drawn) [6-033, 2-Acetylamino-4-[5-(3,5-dichlorophenyl)-5-trifluoromethyl-4,5-dihydroisoxazole-3-yl]-N-(methoxyiminomethyl)benzoic acid amide] | ≥ 80 | ≥ 80 | – | – | –
COC(=O)N(C(=O)c1ccc(C2=NOC(c3cc(Cl)cc(Cl)c3)(C(F)(F)F)C2)cc1C)c1cncnc1 (stereo not drawn) [5-169, Methyl N-[4-[5-(3,5-dichlorophenyl)-5-trifluoromethyl-4,5-dihydro-isoxazole-3-yl]-2-methylbenzoyl]-N-(5-pyrimidinyl)carbamate] | ≥ 80 | ≥ 80 | – | – | –
Cc1cc(C2=NOC(c3cc(Cl)cc(Cl)c3)(C(F)(F)F)C2)ccc1C(=O)N(C)c1cncnc1 (stereo not drawn) [5-164, 4-[5-(3,5-Dichlorophenyl)-5-trifluoromethyl-4,5-dihydroisoxazole-3-yl]-2-methyl-N-methyl-N-(5-pyrimidinyl)benzoic acid amide] | ≥ 80 | ≥ 80 | – | – | –
Cc1cc(C2=NOC(c3cc(Cl)cc(Cl)c3)(C(F)(F)F)C2)ccc1C(=O)N(C)c1ncc(C#N)cn1 (stereo not drawn) [5-171, N-(5-Cyano-2-pyrimidinyl)-4-[5-(3,5-dichlorophenyl)-5-trifluoromethyl-4,5-dihydroisoxazole-3-yl]-N-methyl-2-methyl benzoic acid amide] | ≥ 80 | ≥ 80 | – | – | –
COC(=O)N(C(=O)c1ccc(C2=NOC(c3cc(Cl)cc(Cl)c3)(C(F)(F)F)C2)cc1C)c1ccc(C#N)cn1 (stereo not drawn) [5-071, Methyl N-(5-cyano-2-pyridyl)-N-[4-[5-(3,5-dichlorophenyl)-5-trifluoromethyl-4,5-dihydro-isoxazole-3-yl]-2-methylbenzoyl]carbamate] | ≥ 80 | ≥ 80 | – | – | –
CC(=O)N(C(=O)c1ccc(C2=NOC(c3cc(Cl)cc(Cl)c3)(C(F)(F)F)C2)cc1C)c1cccc(Cl)n1 (stereo not drawn) [5-073, N-Acetyl-N-(6-chloro-2-pyridyl)-4-[5-(3,5-dichlorophenyl)-5-trifluoromethyl-4,5-dihydroisoxazole-3-yl]-2-methyl benzoic acid amide] | ≥ 80 | ≥ 80 | – | – | –
COCc1cc(C2=NOC(c3cc(Cl)cc(Cl)c3)(C(F)(F)F)C2)ccc1C(=O)NC(=N)OC (stereo not drawn) [6-031, 4-[5-(3,5-Dichlorophenyl)-5-trifluoromethyl-4,5-dihydroisoxazole-3-yl]-N-(methoxy-iminomethyl)-2-methoxymethyl benzoic acid amide] | ≥ 80 | ≥ 80 | – | – | –
CCc1cc(C2=NOC(c3cc(Cl)cc(Cl)c3)(C(F)(F)F)C2)ccc1C(=O)N/C=N\OC (stereo not drawn) [6-020, (Z)-4-[5-(3,5-Dichlorophenyl)-5-trifluoromethyl-4,5-dihydroisoxazole-3-yl]-2-ethyl-N-(methoxyiminomethyl)benzoic acid amide] | ≥ 80 | ≥ 80 | – | – | –
CCO/N=C\NC(=O)c1ccc(C2=NOC(c3cc(Cl)cc(Cl)c3)(C(F)(F)F)C2)cc1OC(F)F (stereo not drawn) [6-023, (Z)-4-[5-(3,5-Dichlorophenyl)-5-trifluoromethyl-4,5-dihydroisoxazole-3-yl]-2-difluoromethoxy-N-(ethoxyiminomethyl)benzoic acid amide] | – | – | ≥ 80 | ≥ 80 | –
COC(=O)N(COCC(F)(F)F)C(=O)c1ccc(C2=NOC(c3cc(Cl)cc(Cl)c3)(C(F)(F)F)C2)cc1C (stereo not drawn) [3-032, Methyl N-[4-[5-(3,5-dichlorophenyl)-5-trifluoromethyl-4,5-dihydro-isoxazole-3-yl]-2-methylbenzoyl]-N-(2,2,2-trifluoroethoxymethyl)carbamate] | ≥ 80 | ≥ 80 | – | – | –
CC(=O)N(C(=O)c1ccc(C2=NOC(c3cc(Cl)cc(Cl)c3)(C(F)(F)F)C2)cc1C)n1cccn1 (stereo not drawn) [5-044, N-Acetyl-4-[5-(3,5-dichlorophenyl)-5-trifluoromethyl-4,5-dihydroisoxazole-3-yl]-2-methyl-N-(1-pyrazolyl)benzoic acid amide] | – | – | ≥ 80 | ≥ 80 | –
CON=CN(C)C(=O)c1ccc(C2=NOC(c3cc(Cl)cc(Cl)c3)(C(F)(F)F)C2)cc1C (stereo not drawn) [7-002, 4-[5-(3,5-Dichlorophenyl)-5-trifluoromethyl-4,5-dihydroisoxazole-3-yl]-N-(methoxyiminomethyl)-N-methyl-2-methylbenzoic acid amide] | ≥ 80 | ≥ 80 | – | – | –
Cc1cc(C2=NOC(c3cc(Cl)cc(Cl)c3)(C(F)(F)F)C2)ccc1C(=O)N(C)c1cccc(Br)n1 (stereo not drawn) [5-075, N-(6-Bromo-2-pyridyl)-4-[5-(3,5-dichlorophenyl)-5-trifluoromethyl-4,5-dihydro-isoxazole-3-yl]-N-methyl-2-methyl benzoic acid amide] | ≥ 80 | ≥ 80 | – | – | –
Cc1cc(C2=NOC(c3cc(Cl)cc(Cl)c3)(C(F)(F)F)C2)ccc1C(=O)N(C)C(N)=O (stereo not drawn) [4-003, N-Carbamoyl-4-[5-(3,5-dichlorophenyl)-5-trifluoromethyl-4,5-dihydroisoxazole-3-yl]-2-methyl-N-methyl benzoic acid amide] | – | – | ≥ 80 | ≥ 80 | –
Cc1cc(C2=NOC(c3cc(Cl)cc(Cl)c3)(C(F)(F)F)C2)ccc1C(=O)N(C)C(=O)NC(=O)CCl (stereo not drawn) [4-006, N-Chloroacetyl-N′-[4-[5-(3,5-dichlorophenyl)-5-trifluoromethyl-4,5-dihydroisoxazole-3-yl]-2-methylbenzoyl]-N′-methyl urea] | – | – | ≥ 80 | ≥ 80 | –
CCN(C(=O)NC(=O)c1ccc(C2=NOC(c3cc(Cl)cc(Cl)c3)(C(F)(F)F)C2)cc1C)C(=O)OC (stereo not drawn) [4-011, N-[4-[5-(3,5-dichlorophenyl)-5-trifluoromethyl-4,5-dihydro-isoxazole-3-yl]-2-methylbenzoyl]-N′-ethyl-N′-methoxycarbonyl urea] | ≥ 80 | ≥ 80 | – | – | –
Cc1cc(C2=NOC(c3cc(Cl)cc(Cl)c3)(C(F)(F)F)C2)ccc1C(=O)NC(N)=O (stereo not drawn) [4-002, N-Carbamoyl-4-[5-(3,5-dichlorophenyl)-5-trifluoromethyl-4,5-dihydro-isoxazole-3-yl]-2-methyl benzoic acid amide] | – | – | ≥ 80 | ≥ 80 | –
Cc1cc(C2=NOC(c3cc(Cl)cc(Cl)c3)(C(F)(F)F)C2)ccc1C(=O)N(C)C1(Cl)N=CC=CN1 (stereo not drawn) [5-172, N-(2-Chloro-2-pyrimidinyl)-4-[5-(3,5-dichlorophenyl)-5-trifluoromethyl-4,5-dihydro-isoxazole-3-yl]-N-methyl-2-methyl benzoic acid amide] | ≥ 80 | – | – | – | ≥ 80
